Test results from PubChem BioAssay AID192 (DTP/NCI, 2004).
Inconclusive results and toxic doses are left out.

Test system: BDF1 mice, B16 melanoma ip, median survival T/C
Test: NCI In Vivo Anticancer Drug Screen. Data for tumor model B16 Melanoma (intraperitoneal) in B6D2F1 (BDF1) mice
Settings: endpoint: median survival time, higher = longer survival
Method in brief: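 Compounds were tested in mice carrying transplantable tumors. Survival or tumor size was recorded, and each value is the treated-group measurement (T) divided by that of the vehicle-treated control group (C).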

[1] = dose: 100.0 mg/kg/injection, schedule: Q01DX009 (ip), vehicle: Klucel (hydroxypropylcellulose) (HPC)
[2] = dose: 200.0 mg/kg/injection, schedule: Q01DX009 (ip), vehicle: Klucel (hydroxypropylcellulose) (HPC)
[3] = dose: 400.0 mg/kg/injection, schedule: Q01DX009 (ip), vehicle: Klucel (hydroxypropylcellulose) (HPC)
[4] = dose: 6.25 mg/kg/injection, schedule: Q01DX009 (ip), vehicle: saline
[5] = dose: 25.0 mg/kg/injection, schedule: Q01DX009 (ip), vehicle: Klucel (hydroxypropylcellulose) (HPC)
[6] = dose: 50.0 mg/kg/injection, schedule: Q01DX009 (ip), vehicle: Klucel (hydroxypropylcellulose) (HPC)
[7] = dose: 50.0 mg/kg/injection, schedule: Q01DX009 (ip), vehicle: saline
[8] = dose: 100.0 mg/kg/injection, schedule: Q01DX009 (ip), vehicle: saline
[9] = dose: 12.5 mg/kg/injection, schedule: Q01DX009 (ip), vehicle: saline

`CC1OC(=O)C(C(C)C)NC(=O)C(C(C)C)OC(=O)C(C(C)C)NC(=O)C(C)OC(=O)C(C(C)C)NC(=O)C(C(C)C)OC(=O)C(C(C)C)NC(=O)C(C)OC(=O)C(C(C)C)NC(=O)C(C(C)C)OC(=O)C(C(C)C)NC1=O` (centres undefined) was tested. Which T/C (dose: 0.04 mg/kg/injection, schedule: Q01DX009 (ip), vehicle: saline with Tween-80) did it give?
Its T/C is 101 % of control.

And the T/C (dose: 0.08 mg/kg/injection, schedule: Q01DX009 (ip), vehicle: saline with Tween-80)?
Its T/C is 106 % of control.

What about the T/C (dose: 0.16 mg/kg/injection, schedule: Q01DX009 (ip), vehicle: saline with Tween-80) of the same compound?
The T/C was 117 % of control.

And the T/C (dose: 0.2 mg/kg/injection, schedule: Q01DX009 (ip), vehicle: DMSO)?
The T/C was 117 % of control.

What about the T/C (dose: 0.31 mg/kg/injection, schedule: Q01DX009 (ip), vehicle: saline with Tween-80) of the same compound?
Its T/C is 152 % of control.

What about the T/C (dose: 0.4 mg/kg/injection, schedule: Q01DX009 (ip), vehicle: DMSO) of the same compound?
Its T/C is 176 % of control.

What about the T/C (dose: 0.75 mg/kg/injection, schedule: Q01DX009 (ip), vehicle: Klucel (hydroxypropylcellulose) (HPC)) of the same compound?
The T/C was 106 % of control.

What about the T/C (dose: 0.75 mg/kg/injection, schedule: Q01DX009 (oral), vehicle: Klucel (hydroxypropylcellulose) (HPC)) of the same compound?
Its T/C is 101 % of control.

What about the T/C (dose: 1.5 mg/kg/injection, schedule: Q01DX009 (ip), vehicle: Klucel (hydroxypropylcellulose) (HPC)) of the same compound?
The T/C was 101 % of control.

What about the T/C (dose: 1.5 mg/kg/injection, schedule: Q01DX009 (oral), vehicle: Klucel (hydroxypropylcellulose) (HPC)) of the same compound?
The T/C was 104 % of control.

And the T/C (dose: 2.5 mg/kg/injection, schedule: Q01DX009 (ip), vehicle: saline with Tween-80)?
Its T/C is 153 % of control.

And the T/C (dose: 3.0 mg/kg/injection, schedule: Q01DX009 (oral), vehicle: Klucel (hydroxypropylcellulose) (HPC))?
The T/C was 105 % of control.

What about the T/C (dose: 5.0 mg/kg/injection, schedule: Q01DX009 (ip), vehicle: saline with Tween-80) of the same compound?
Its T/C is 183 % of control.

What about the T/C (dose: 5.0 mg/kg/injection, schedule: Q01DX009 (oral), vehicle: saline with Tween-80) of the same compound?
The T/C was 105 % of control.

And the T/C (dose: 6.0 mg/kg/injection, schedule: Q01DX009 (ip), vehicle: saline with Tween-80)?
Its T/C is 165 % of control.

And the T/C (dose: 6.0 mg/kg/injection, schedule: Q01DX009 (oral), vehicle: Klucel (hydroxypropylcellulose) (HPC))?
The T/C was 107 % of control.

And the T/C (dose: 10.0 mg/kg/injection, schedule: Q01DX009 (ip), vehicle: saline with Tween-80)?
The T/C was 171 % of control.

What about the T/C (dose: 10.0 mg/kg/injection, schedule: Q01DX009 (oral), vehicle: saline with Tween-80) of the same compound?
The T/C was 116 % of control.

What about the T/C (dose: 12.0 mg/kg/injection, schedule: Q01DX009 (oral), vehicle: Klucel (hydroxypropylcellulose) (HPC)) of the same compound?
The T/C was 100 % of control.

What about the T/C (dose: 20.0 mg/kg/injection, schedule: Q01DX009 (ip), vehicle: saline with Tween-80) of the same compound?
Its T/C is 94 % of control.

And the T/C (dose: 20.0 mg/kg/injection, schedule: Q01DX009 (oral), vehicle: saline with Tween-80)?
The T/C was 116 % of control.

What about the T/C (dose: 24.0 mg/kg/injection, schedule: Q01DX009 (oral), vehicle: Klucel (hydroxypropylcellulose) (HPC)) of the same compound?
Its T/C is 94 % of control.

What about the T/C (dose: 40.0 mg/kg/injection, schedule: Q01DX009 (oral), vehicle: saline with Tween-80) of the same compound?
Its T/C is 109 % of control.

Which T/C [1] does the source give for `CCN(C(=O)Nc1ccc(OC)cc1)c1ccccc1` here?
Its T/C is 97 % of control.

What about the T/C [2] of the same compound?
The T/C was 100 % of control.

What about the T/C [3] of the same compound?
Its T/C is 88 % of control.

Which T/C (dose: 1.5 mg/kg/injection, schedule: Q01DX009 (ip), vehicle: saline) does the source give for `[Cl][Pt+2][Cl].[NH-]CC1(C[NH-])CCCCC1` here?
Its T/C is 190 % of control.

What about the T/C (dose: 3.0 mg/kg/injection, schedule: Q01DX009 (ip), vehicle: saline) of the same compound?
Its T/C is 208 % of control.

What about the T/C (dose: 6.0 mg/kg/injection, schedule: Q01DX009 (ip), vehicle: saline) of the same compound?
The T/C was 208 % of control.

Which results are given for `FC(F)(F)c1ccc2c(c1)N(CCCN1CCN(CCN3CCCCC3)CC1)c1ccccc1S2`?
T/C (dose: 0.78 mg/kg/injection, schedule: Q01DX009 (ip), vehicle: saline): 100 % of control; T/C (dose: 1.56 mg/kg/injection, schedule: Q01DX009 (ip), vehicle: saline): 105 % of control; T/C [4]: 97 % of control

What does the source list for `NC(Cc1ccc(O)cc1)C(=O)OCc1ccccc1` (centres undefined)?
T/C (dose: 100.0 mg/kg/injection, schedule: Q01DX009 (ip), vehicle: saline with Tween-80): 102 % of control; T/C (dose: 200.0 mg/kg/injection, schedule: Q01DX009 (ip), vehicle: saline with Tween-80): 114 % of control; T/C (dose: 400.0 mg/kg/injection, schedule: Q01DX009 (ip), vehicle: saline with Tween-80): 98 % of control

Which results are given for `C1=NC(c2ccccn2)=NNC(c2ccccn2)=C1c1ccccc1`?
T/C [5]: 100 % of control; T/C [6]: 101 % of control; T/C [1]: 86 % of control

With `CSC(=C[N+](=O)[O-])SC` as the compound, how does the T/C (dose: 1.56 mg/kg/injection, schedule: Q01DX009 (ip), vehicle: water) read?
The T/C was 108 % of control.

What about the T/C (dose: 3.13 mg/kg/injection, schedule: Q01DX009 (ip), vehicle: water) of the same compound?
The T/C was 91 % of control.

And the T/C (dose: 6.25 mg/kg/injection, schedule: Q01DX009 (ip), vehicle: water)?
The T/C was 95 % of control.

And the T/C (dose: 12.5 mg/kg/injection, schedule: Q01DX009 (ip), vehicle: water)?
The T/C was 99 % of control.

What about the T/C (dose: 25.0 mg/kg/injection, schedule: Q01DX009 (ip), vehicle: water) of the same compound?
Its T/C is 89 % of control.

Which T/C [7] does the source give for `COP(=O)(OC)OCc1cnc(SC)nc1N` here?
The T/C was 121 % of control.

And the T/C [8]?
The T/C was 100 % of control.

Which results are given for `Cc1ccc(NC(=O)C(Cl)(Cl)Cl)cc1C`?
T/C [1]: 96 % of control; T/C [2]: 96 % of control; T/C [3]: 96 % of control

Which results are given for `CC(=O)OC(CC(=O)CC(O)(C(F)(F)F)C(F)(F)F)(C(F)(F)F)C(F)(F)F`?
T/C (dose: 3.13 mg/kg/injection, schedule: Q01DX009 (ip), vehicle: saline): 102 % of control; T/C (dose: 3.13 mg/kg/injection, schedule: Q04DX003 (ip), vehicle: saline): 97 % of control; T/C [4]: 107 % of control; T/C (dose: 6.25 mg/kg/injection, schedule: Q04DX003 (ip), vehicle: saline): 100 % of control; T/C [9]: 92 % of control; T/C (dose: 12.5 mg/kg/injection, schedule: Q04DX003 (ip), vehicle: saline): 100 % of control

`CCN(C(=O)Nc1ccccc1Cl)c1ccccc1` was tested. Which T/C (dose: 100.0 mg/kg/injection, schedule: Q04DX003 (ip), vehicle: saline with Tween-80) did it give?
The T/C was 94 % of control.

And the T/C (dose: 200.0 mg/kg/injection, schedule: Q04DX003 (ip), vehicle: saline with Tween-80)?
Its T/C is 100 % of control.

And the T/C (dose: 400.0 mg/kg/injection, schedule: Q04DX003 (ip), vehicle: saline with Tween-80)?
The T/C was 91 % of control.

How did the T/C [1] turn out when `Oc1c(Br)cc(Br)cc1/C=N/N=C/c1cc(Br)cc(Br)c1O` was run?
The T/C was 90 % of control.

What about the T/C [2] of the same compound?
Its T/C is 87 % of control.

`O=NN(CCBr)C(=O)NCCBr` was tested. Which T/C (dose: 50.0 mg/kg/injection, schedule: Q01DX009 (ip), vehicle: gum acacia) did it give?
The T/C was 107 % of control.

And the T/C (dose: 66.0 mg/kg/injection, schedule: Q01DX009 (ip), vehicle: gum acacia)?
The T/C was 109 % of control.

What about the T/C (dose: 100.0 mg/kg/injection, schedule: Q01DX009 (ip), vehicle: gum acacia) of the same compound?
The T/C was 116 % of control.

Which T/C [6] does the source give for `CC(C)(C)CC(N)=O` here?
The T/C was 112 % of control.

And the T/C [1]?
The T/C was 100 % of control.

And the T/C [8]?
The T/C was 107 % of control.

What about the T/C [2] of the same compound?
The T/C was 105 % of control.

And the T/C (dose: 200.0 mg/kg/injection, schedule: Q01DX009 (ip), vehicle: saline)?
Its T/C is 123 % of control.

And the T/C [3]?
The T/C was 105 % of control.

And the T/C (dose: 400.0 mg/kg/injection, schedule: Q01DX009 (ip), vehicle: saline)?
The T/C was 107 % of control.

Which results are given for `c1cc[c]([Sn][c]2ccccc2)cc1`?
T/C (dose: 0.8 mg/kg/injection, schedule: Q04DX003 (ip), vehicle: saline with Tween-80): 97 % of control; T/C (dose: 1.2 mg/kg/injection, schedule: Q04DX003 (ip), vehicle: saline with Tween-80): 97 % of control; T/C (dose: 1.25 mg/kg/injection, schedule: Q01DX009 (ip), vehicle: saline): 95 % of control; T/C (dose: 1.8 mg/kg/injection, schedule: Q04DX003 (ip), vehicle: saline with Tween-80): 100 % of control; T/C (dose: 2.5 mg/kg/injection, schedule: Q01DX009 (ip), vehicle: saline): 111 % of control; T/C (dose: 2.5 mg/kg/injection, schedule: Q04DX003 (ip), vehicle: saline with Tween-80): 121 % of control; T/C (dose: 5.0 mg/kg/injection, schedule: Q01DX009 (ip), vehicle: saline): 109 % of control; T/C (dose: 5.0 mg/kg/injection, schedule: Q04DX003 (ip), vehicle: saline with Tween-80): 115 % of control

For `CC/C(=C/C(F)(F)C(F)(F)C(F)(F)F)[N+](=O)[O-]`, which T/C (dose: 12.5 mg/kg/injection, schedule: Q01DX009 (ip), vehicle: Klucel (hydroxypropylcellulose) (HPC)) is on record?
Its T/C is 101 % of control.

What about the T/C [5] of the same compound?
Its T/C is 87 % of control.

And the T/C [6]?
Its T/C is 87 % of control.

How did the T/C (dose: 100.0 mg/kg/injection, schedule: Q04DX003 (ip), vehicle: Klucel (hydroxypropylcellulose) (HPC)) turn out when `COc1ccc(S(=O)O)cc1NC(C)=O` was run?
The T/C was 95 % of control.

For `C[N+](C)([O-])CCC=C1c2ccccc2CCc2ccccc21`, which T/C [4] is on record?
The T/C was 95 % of control.

And the T/C [9]?
The T/C was 90 % of control.

And the T/C [7]?
The T/C was 90 % of control.
